Tested on: Rh18 complex spheroid viability, percent test/control
Assay: Anticancer human tumor Rh18 cell line growth inhibition [Asc];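 note: spheroids exposed to compound for 7 days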;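 for viability, T/C: 100% = DMSO vehicle control wells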
Conditions: for IC50: curve of first compound; for viability, T/C: stronger effect = lower value
Protocol: Multicellular complex tumor spheroid response to apoptosis pathway targeting inhibitors Alrizomadlin, Pelcitoclax, and Dasminapant in combination with a variety of drugs and investigational agents in selected tumor cell lines
The MDM2 inhibitor alrizomadlin, the Bcl-2/Bcl-xL inhibitor pelcitoclax, and the IAPs inhibitor dasminapant were evaluated both individually and in combination with standard of care and investigational anticancer small molecules within a complex spheroid model of solid tumors. . Complex spheroids include a stromal component modeled by human endothelial cells (HUVEC) and fibroblasts modeled by human mesenchymal stem cells (MSCs). The concentration ranges selected for each drug and investigational agent were based upon clinically achievable concentrations if the clinical Cmax of the agent was known.
Compounds. The drugs and investigational agents: alrizomadlin (APG-115; NSC831270), pelcitoclax (APG-1252; NSC835773), dasminapant (APG-1387;NSC834197), TAK-243 (NSC785004), copanlisib (NSC809693), olaparib (NSC753686), talazoparib (NSC767125), cobimetinib (NSC 768068), eltanexor (KPT-8602, NSC 794443), abemaciclib (NSC 768073), sotorasib (NSC818433), adagrasib (NSC 831453), MRTX-1133 (NSC 836407), Iadademestat (ORY1001, NSC 806812), and RMC-4630 (NSC839698), were obtained from the NCI Developmental Therapeutics Program Chemical Repository. The FDA-approved anticancer drug set is available from the Developmental Therapeutics Program at https://dtp.cancer.gov/organization/dscb/obtaining/available plates.htm. […] The stock solutions were prepared in dimethyl sulfoxide (DMSO, Sigma-Aldrich, St. Louis, MO, cat. D2650) at 800-fold the tested concentration and stored at -70 degrees C prior to their use. All drugs and investigational agents were tested over a range starting from a high concentration at or near the clinical Cmax and decreasing in half-log increments. If the clinical Cmax for an agent had not been determined, the highest concentration tested was 10 microM.
The patient-derived cancer (PDC) cell lines include five colon adenocarcinomas: 186277-243-T-J2-PDC, 616215-338-R-J1-PDC, 439559-082-T-J2-PDC, 463943-066-T-J2-PDC, and 519858-162-T-J1-PDC; three pancreatic carcinomas: 323965-272-R-J2-PDC, 521955-158-R6-J3-PDC, and 521955-158-R2-J5-PDC; two uterine sarcomas: 327498-152-R-J2-PDC and 993429-296-R-J1-PDC; two rhabdomyosarcomas: 755483-174-R-J1-PDC and 772245-204-R-J1-PDC; two soft tissue sarcomas: 126254-015-R-J1-PDC and 494315-158-R-J1-PDC; two malignant fibrous histiocytomas: 317291-083-R-J1-PDC and 596521-263-R-J1-PDC; two breast carcinomas: 171881-019-R-J1-PDC and 885512-296-R-J2-PDC; and one ovarian carcinoma: 6556581-035-R-J-PDC were obtained from the NCI PDMR, (https://pdmr.cancer.gov). The established cell lines HSSY-2 synovial sarcoma (RRID:CVCL 8719), SYO-1 synovial sarcoma (RRID:CVCL_7146), MPNST malignant peripheral neural sheath tumor were obtained from the Sloan Kettering Institute. The following established cell lines were purchased from the American Type Culture Collection (ATCC, Manassas, VA), Sor the received from the NCI repository:, PANC-1 pancreatic carcinoma (CRL-1469, RRID:CVCL_0480), OVCAR-5 ovarian carcinoma (RRID:CVCL_1628), OVCAR-8 ovarian carcinoma (RRID:CVCL_1629), , MCF-7 breast carcinoma (CRL-12584, RRID:CVCL_0031), MDA-MB-231 breast carcinoma (CRL-12532, RRID:CVCL_0062), NCI-H1876 small cell lung carcinoma (CRL-5902, RRID:CVCL_1503), NCI-H510A small cell lung carcinoma (HTB-184, RRID:CVCL_1565), NCI-H1417 (CRL-5869, RRID:CVCL_1469), and NCI-H196 small cell lung carcinoma (CRL-5823, RRID:CVCL_1509). Dr. Peter Houghton (Greehey Children's Cancer Research Institute, University of Texas Health Science Center, San Antonio, TX) provided Rh-18 rhabdomyosarcoma (RRID:CVCL_1659). Pooled donor human umbilical vein endothelial cells (HUVEC, Lonza, cat. CC-2519) and human mesenchymal stem cells (hMSC, Lonza, cat. PT-2501) were purchased from Lonza (Walkersville, MD).
Cell Culture. […]

[1] = second compound 0.03 µM, first compound 0.00316 µM
[2] = second compound 0.03 µM, first compound 0.01 µM
[3] = second compound 0.03 µM, first compound 0.0316 µM
[4] = second compound 0.03 µM, first compound 0.1 µM
[5] = second compound 0.0949 µM, first compound 0.00316 µM
[6] = second compound 0.0949 µM, first compound 0.01 µM
[7] = second compound 0.0949 µM, first compound 0.0316 µM
[8] = second compound 0.0949 µM, first compound 0.1 µM
[9] = second compound 0.3 µM, first compound 0.00316 µM
[10] = second compound 0.3 µM, first compound 0.01 µM
[11] = second compound 0.3 µM, first compound 0.0316 µM
[12] = second compound 0.3 µM, first compound 0.1 µM
[13] = second compound 0.949 µM, first compound 0.00316 µM
[14] = second compound 0.949 µM, first compound 0.01 µM
[15] = second compound 0.949 µM, first compound 0.0316 µM
[16] = second compound 0.949 µM, first compound 0.1 µM
[17] = second compound 3 µM, first compound 0.00316 µM
[18] = second compound 3 µM, first compound 0.01 µM
[19] = second compound 3 µM, first compound 0.0316 µM
[20] = second compound 3 µM, first compound 0.1 µM
[21] = second compound 0.03 µM, first compound 0.316 µM
[22] = second compound 0.03 µM, first compound 1 µM
[23] = second compound 0.0949 µM, first compound 0.316 µM
[24] = second compound 0.0949 µM, first compound 1 µM
[25] = second compound 0.3 µM, first compound 0.316 µM
[26] = second compound 0.3 µM, first compound 1 µM
[27] = second compound 0.949 µM, first compound 0.316 µM
[28] = second compound 0.949 µM, first compound 1 µM
[29] = second compound 3 µM, first compound 0.316 µM
[30] = second compound 3 µM, first compound 1 µM

IC50 (second compound 0.03 µM) | IC50 (second compound 0.0949 µM) | IC50 (second compound 0.3 µM) | IC50 (second compound 0.949 µM) | IC50 (second compound 3 µM) | Compound | viability, T/C [1] | viability, T/C [2] | viability, T/C [3] | viability, T/C [4] | viability, T/C [5] | viability, T/C [6] | viability, T/C [7] | viability, T/C [8] | viability, T/C [9] | viability, T/C [11] | viability, T/C [12] | viability, T/C [15] | viability, T/C [16] | viability, T/C [19] | viability, T/C [20] | further results
< 0.316 nM | < 0.316 nM | < 0.316 nM | < 0.316 nM | < 0.316 nM | Cn1ncnc1[C@H]1c2n[nH]c(=O)c3cc(F)cc(c23)N[C@@H]1c1ccc(F)cc1 + CCN1C(C(=O)NC23CCC(C(=O)O)(CC2)CC3)C(c2cccc(Cl)c2F)C2(C(=O)Nc3cc(Cl)ccc32)C12CCCCC2 | 45.6% | 36.1% | 39.4% | 49% | 25.6% | 26.6% | 25.5% | 25.3% | 13% | 13.3% | 13.3% | 9.91% | 9.54% | 8.46% | 7.12% | viability, T/C (second compound 0.03 µM, first compound 0.000316 µM): 39%; viability, T/C (second compound 0.03 µM, first compound 0.001 µM): 36.2%; viability, T/C (second compound 0.0949 µM, first compound 0.000316 µM): 22.7%; viability, T/C (second compound 0.0949 µM, first compound 0.001 µM): 27.1%; viability, T/C (second compound 0.3 µM, first compound 0.000316 µM): 13.3%; viability, T/C (second compound 0.3 µM, first compound 0.001 µM): 15.4%; viability, T/C [10]: 13.1%; viability, T/C (second compound 0.949 µM, first compound 0.000316 µM): 11.1%; viability, T/C (second compound 0.949 µM, first compound 0.001 µM): 11.2%; viability, T/C [13]: 11.7%; viability, T/C [14]: 10.4%; viability, T/C (second compound 3 µM, first compound 0.000316 µM): 9.71%; viability, T/C (second compound 3 µM, first compound 0.001 µM): 9.49%; viability, T/C [17]: 9.33%; viability, T/C [18]: 7.51%
< 31.6 nM | < 31.6 nM | < 31.6 nM | < 31.6 nM | < 31.6 nM | O=C(c1cc(Cc2n[nH]c(=O)c3ccccc23)ccc1F)N1CCN(C(=O)C2CC2)CC1 + CCN1C(C(=O)NC23CCC(C(=O)O)(CC2)CC3)C(c2cccc(Cl)c2F)C2(C(=O)Nc3cc(Cl)ccc32)C12CCCCC2 |  |  | 49.4% | 38.6% |  |  | 26.5% | 26.8% |  | 14.2% | 13.7% | 10.5% | 11.3% | 10.4% | 8.17% | viability, T/C [21]: 43.2%; viability, T/C [22]: 41.7%; viability, T/C (second compound 0.03 µM, first compound 3.16 µM): 40.7%; viability, T/C (second compound 0.03 µM, first compound 10 µM): 46.3%; viability, T/C [23]: 28.7%; viability, T/C [24]: 29%; viability, T/C (second compound 0.0949 µM, first compound 3.16 µM): 25.1%; viability, T/C (second compound 0.0949 µM, first compound 10 µM): 23.7%; viability, T/C [25]: 14.7%; viability, T/C [26]: 12.3%; viability, T/C (second compound 0.3 µM, first compound 3.16 µM): 11.6%; viability, T/C (second compound 0.3 µM, first compound 10 µM): 12.4%; viability, T/C [27]: 10.7%; viability, T/C [28]: 10.2%; viability, T/C (second compound 0.949 µM, first compound 3.16 µM): 9.53%; viability, T/C (second compound 0.949 µM, first compound 10 µM): 9.36%; viability, T/C [29]: 9.35%; viability, T/C [30]: 10.7%; viability, T/C (second compound 3 µM, first compound 3.16 µM): 9%; viability, T/C (second compound 3 µM, first compound 10 µM): 8.64%
< 3.16 nM | < 3.16 nM | < 3.16 nM | < 3.16 nM | < 3.16 nM | O=C(c1ccc(F)c(F)c1Nc1ccc(I)cc1F)N1CC(O)([C@@H]2CCCCN2)C1 + CCN1C(C(=O)NC23CCC(C(=O)O)(CC2)CC3)C(c2cccc(Cl)c2F)C2(C(=O)Nc3cc(Cl)ccc32)C12CCCCC2 | 35.4% | 36.8% | 31.1% | 33.5% | 22.7% | 20.1% | 20.1% | 13.9% | 13% | 10.7% | 8.42% | 9.23% | 5.03% | 10.8% | 2.33% | viability, T/C [21]: 23.8%; viability, T/C [22]: 6.29%; viability, T/C [23]: 7.94%; viability, T/C [24]: 1.48%; viability, T/C [10]: 11.5%; viability, T/C [25]: 3.11%; viability, T/C [26]: 1.29%; viability, T/C [13]: 9.01%; viability, T/C [14]: 11.2%; viability, T/C [27]: 0.89%; viability, T/C [28]: 0.92%; viability, T/C [17]: 8.3%; viability, T/C [18]: 11.4%; viability, T/C [29]: 0.83%; viability, T/C [30]: 1.01%

Source: PubChem BioAssay AID1963431 (Molecular Pharmacology Branch, DTP, NCI, 2024)
